# Results as given in patent US6906203B1, “Substituted 4H-chromene and analogs as activators of caspases and inducers of apoptosis and the use thereof” (Cytovia, Inc., priority 1999, dated 2005).
# Entries after “also recorded” stand apart in the source; their conditions may differ. Like-named read-outs stand apart in the source and are kept apart here.
# Assays:
# ZR-75-1 cells [1] = assay: Caspase cascade activation assay (N-(Ac-DEVD)-N'-ethoxycarbonyl-R110 fluorogenic substrate) in ZR-75-1; type: cell-based, Human; conditions: 24 h incubation; for EC50: read-out: Caspase potency EC50; for Caspase activity Ratio: ratio of net RFU of test compound to control
# Procedure: (§1) Human breast cancer cell lines T47D and ZR-75-1 were grown according to media component mixtures designated by American Type Culture Collection +10% FCS (Life Technologies, Inc.), in a 5% CO2-95% humidity incubator at 37° C. T-47D and ZR-75-1 cells were maintained at a cell density between 30 and 80% confluency at a cell density of 0.1 to 0.6×10^6 cells/ml. Cells were harvested at 600×g and resuspended at 0.65×10^6 cells/ml into appropriate media +10% FCS . […] An aliquot of 45 μl of cells was added to a well of a 96-well microtiter plate containing 5 μl of a 10% DMSO in RPMI-1640 media solution without test compound as the control sample. The samples were mixed by agitation and then incubated at 37° C. for 24 h in a 5% CO2-95% humidity incubator. After incubation, the samples were removed from the incubator and 50 μl of a solution containing 20 μM of N-(Ac-DEVD)-N′-ethoxycarbonyl-R110 (SEQ ID NO: 1) fluorogenic substrate (Cytovia, Inc.; WO99/18856), 20% sucrose (Sigma), 20 mM DTT (Sigma), 200 mM NaCl (Sigma), 40 mM Na PIPES buffer pH 7.2, and 500 μg/ml lysolecithin (Calbiochem) was added. The samples were mixed by agitation and incubated at room temperature. Using a fluorescent plate reader (Model 1420 Wallac Instruments), an initial reading (T=0) was made approximately 1-2 min after addition of the substrate solution, employing excitation at 485 nm and emission at 530 nm, to determine the background fluorescence of the control sample. After the 3 h incubation, the samples were read for fluorescence as above (T=3 h).
# (§2) The Relative Fluorescence Unit values (RFU) were used to calculate the sample readings as follows: RFU(T=3h)−Control RFU (T=0)=Net RFU(T=3h)
# (§3) The EC50 (nM) was determined by a sigmoidal dose-response calculation (Prism 2.0, GraphPad Software Inc.).
# T-47D cells [2] = assay: Inhibition of cell proliferation (GI50), CellTiter 96 AQUEOUS One, T-47D; type: cell-based; conditions: Homo sapiens, T47D, 48 h
# Procedure: (§4) T-47D and ZR-75-1 cells were grown and harvested as in Example 148. An aliquot of 90 μl of cells ([…] cells/ml) was added to a well of a 96-well microtiter plate containing 10 μl of a 10% DMSO in RPMI-1640 media solution containing 1 nM to 100 μM of 2-amino-3-cyano-7-dimethylamino-4-(3-methoxy-4,5-methylenedioxyphenyl)-4H-chromene (Example 19) or other test compound (0.1 nM to 10 μM final). An aliquot of 90 μl of cells was added to a well of a 96-well microtiter plate containing 10 μl of a 10% DMSO in RPMI-1640 media solution without compound as the control sample for maximal cell proliferation (Amax). The samples were mixed by agitation and then incubated at 37° C. for 48 h in a 5% CO2-95% humidity incubator. […] Using an absorbance plate reader (Model 1420 Wallac Instruments), an initial reading (T=0) was made approximately 1-2 min after addition of the solution, employing absorbance at 490 nm. This determines the possible background absorbance of the test compounds. No absorbance for 2-amino-3-cyano-7-dimethylamino-4-(3-methoxy-4,5-methylenedioxyphenyl)-4H-chromene or its analogs was found at 490 nm. […]
# (§5) The samples were mixed by agitation and then incubated at 37° C. for 0.5 h in a 5% CO2-95% humidity incubator. […] Absorbance was read as above, (AT=0) defining absorbance for initial cell number used as baseline in GI50 determinations.
# ZR-75-1 cells [3] = assay: Inhibition of cell proliferation (GI50), CellTiter 96 AQUEOUS One, ZR-75-1; type: cell-based; conditions: Homo sapiens, ZR-75-1, 48 h
# Procedure: as §4, §5
# T47D cells = assay: Cell cycle arrest by flow cytometry (propidium iodide), T47D; type: cell-based, Human; conditions: 1 μM, 18 h
# Procedure: (§6) T47D, ZR-75-1 breast cancer cell lines and PC-3, an androgen-independent prostate cancer cell line were maintained and harvested as described in Example 148. Jurkat T leukemia cells were grown in RPMI 1640 media (Life Technologies, Inc.) +10% FCS (Sigma Chemical Company) in a 5% CO2-95% humidity incubator at 37° C., and maintained at a cell density between 4 and 8×10^5 cells/ml. 1×10^6 cells were induced with 1 μM of 2-amino-3-cyano-7-dimethylamino-4-(3-methoxy-4,5-methylenedioxyphenyl)-4H-chromene or 2-amino-3-cyano-7-dimethylamino-4-(3,4-methylenedioxyphenyl)-4H-chromene for 18 h at 37° C. As a control, cells were also incubated with DMSO. Cells were harvested at 1200 rpm and washed twice with 5 mM EDTA/PBS. Cells were then resuspended in 300 μl EDTA/PBS and […] of 100% ethanol, vortexed and incubated at room temperature for 1 h. Samples were spun down at 12000 rpm for 5 min and the supernatant was removed. A solution containing 100 μg/ml of propidium iodide and 1 mg/ml of RNAse A (fresh) was added to the samples and incubated for 1 h at room temperature. Samples were then transferred to 12×75 mm polystyrene tubes and analysed on a flow cytometer. All flow cytometry analyses were performed on FACScalibur (Becton Dickinson) using Cell Quest analysis software.
# PC-3 cells = assay: Cell cycle arrest by flow cytometry (propidium iodide), PC-3; type: cell-based; conditions: 1 μM, 18 h
# Procedure: as §6
# T-47D cells [4] = assay: Caspase cascade activation assay (N-(Ac-DEVD)-N'-ethoxycarbonyl-R110 fluorogenic substrate) in T-47D; type: cell-based, Human; conditions: 24 h incubation; for EC50: read-out: Caspase potency EC50; for Caspase activity Ratio: ratio of net RFU of test compound to control
# Procedure: as §1, §2, §3
# Jurkat cells [5] = assay: Nuclear fragmentation in Jurkat cells (Syto16 staining); type: cell-based; conditions: 100 nM or higher, 24 h
# Procedure: The ability of 2-amino-3-cyano-7-dimethylamino-4-(3-methoxy-4,5-methylenedioxyphenyl)-4H-chromene to induce nuclear fragmentation was tested by treatment of Jurkat cells with the test compound followed by staining of the nucleus with Syto16, a fluorescent DNA dye. The nuclei of Jurkat cells treated with DMSO vehicle are round with dispersed chromatin that is moderately stained with Syto16 (FIG. 1A).
# [6] = system: poly(ADP)ribose polymerase (PARP) cleavage in Jurkat cells; assay: PARP cleavage in Jurkat cells (western blot); type: cell-based
# Procedure: A wide range of natural substrates are cleaved by the caspases during apoptosis. One of these is poly(ADP)ribose polymerase (PARP), an enzyme important in genome surveillance. The ability of 2-amino-3-cyano-7-dimethylamino-4-(3-methoxy-4,5-methylenedioxyphenyl)-4H-chromene to induce PARP cleavage was tested by treating Jurkat cells with the compound at a concentration of 2.5 μM for 5, 15 and 30 h. Control cultures were treated with DMSO vehicle or staurosporine, a known apoptosis inducer.
# Jurkat cells [7] = assay: Mitotic arrest in Jurkat cells (mitotic figures, Syto 16); type: cell-based; conditions: 6 h
# Procedure: Jurkat cells were incubated with a range of concentrations of 2-amino-3-cyano-7-dimethylamino-4-(3-methoxy-4,5-methylenedioxyphenyl)-4H-chromene (0.02 μM to 5 μM) for 6 h under normal growth conditions; control cultures were treated with DMSO vehicle. The cells were then treated for 20 min. with 800 nM Syto 16. Cytospin preparations were then prepared and the samples were viewed by fluorescent microscopy using a fluorescein filter set. For each concentration of test compound, the number of mitotic figures were counted and expressed as a percentage of the total number of cells. Three fields from each condition were evaluated and the mean and SEM were calculated and plotted as a function of drug concentration (FIG. 3).
# Jurkat T leukemia cells = assay: Cell cycle arrest by flow cytometry (propidium iodide), Jurkat; type: cell-based; conditions: 1 μM, 18 h
# Procedure: as §6
# [8] = Homo sapiens, 0.016 to 1 μM final
# [9] = Homo sapiens, T47D, 0.016 to 1 μM final
SMILES,EC50 (ZR-75-1 cells [1]; [8]),Caspase activity Ratio (ZR-75-1 cells [1]),Caspase activity Ratio (T-47D cells [4]),EC50 (T-47D cells [4]; [9]),also measured
"CN(C)c1ccc2c(c1)OC(N)=C(C#N)C2c1ccc2c(c1)OCO2 (centres unmarked) [Example 1, 2-Amino-3-cyano-7-dimethylamino-4-(3,4-methylenedioxyphenyl)-4H-chromene]",60 nM,4.2,–,–,"GI50 (T-47D cells [2]): 100 nM; GI50 (ZR-75-1 cells [3]): 10000 nM; Cell cycle arrest (T47D cells): progression and arrest in G2/M; also recorded: induce cell cycle arrest; Cell cycle arrest (PC-3 cells; listed as 2-amino-3-cyano-7-dimethylamino-4-(3,4-methylenedioxyphenyl)-4-H-chromene): progression and arrest in G2/M; Cell cycle arrest (PC-3 cells; listed as 2-amino-3-cyano-7-dimethylamino-4-(3,4-methylenedioxyphenyl)-4H-chromene): induce cell cycle arrest"
"Cc1ccc(C2C(C#N)=C(N)Oc3cc(N(C)C)ccc32)cc1[N+](=O)[O-] (centres unmarked) [Example 4, 2-Amino-3-cyano-7-dimethylamino-4-(4-methyl-3-nitropheyl)-4H-chromene]",–,6.6,6.0,–,EC50 (T-47D cells [4]; 0.016 to 1 μM final): 200 nM; EC50 (ZR-75-1 cells [1]; 0.016 to 1 μM final): 150 nM
"COc1cc(C2C(C#N)=C(N)Oc3cc4c(cc32)OCO4)cc2c1OCO2 (centres unmarked) [Example 14, 2-Amino-3-cyano-4-(3-methoxy-4,5-methylenedioxyphenyl)-6,7-methylenedioxy-4H-chromene]",96 nM,9.0,5.5,172 nM,–
"COc1cc(C2C(C#N)=C(N)Oc3cc(N(C)C)ccc32)cc2c1OCO2 (centres unmarked) [Example 19, 2-Amino-3-cyano-7-dimethylamino-4-(3-methoxy-4,5-methylenedioxyphenyl)-4H-chromene]",38 nM,6.3,5.5,87 nM,"GI50 (T-47D cells [2]): 3 nM; GI50 (ZR-75-1 cells [3]): 500 nM; Nuclear fragmentation (Jurkat cells [5]): shrunken and fragmented nuclei; PARP cleavage at 30 h [6]: virtually all of PARP was converted into its cleaved form; Percent mitotic arrest versus drug concentration (Jurkat cells [7]; up to 1.0 μM (FIG. 3)): increasing percent mitotic arrest with increasing drug concentration; EC50 (Jurkat cells [7]; Homo sapiens, 0.02 μM to 5 μM): ~125 nM; Cell cycle arrest (Jurkat T leukemia cells): progression and arrest in S/G2/M; also recorded: induces cell cycle arrest; Cell cycle arrest (T47D cells): progression and arrest in G2/M; also recorded: induce cell cycle arrest; Cell cycle arrest (PC-3 cells): progression and arrest in G2/M; also recorded: induce cell cycle arrest"
"CN(C)c1ccc2c(c1)OC(N)=C(C#N)C2c1cccc([N+](=O)[O-])c1 (centres unmarked) [Example 38, 2-Amino-3-cyano-7-dimethylamino-4-(3-nitrophenyl)-4H-chromene]",22 nM,6.5,12.7,45 nM,–
"COc1cc(C2C3=CC=C4N=CC=C4C3OC(N)=C2C#N)cc2c1OCO2 (centres unmarked) [Example 94, 2-Amino-3-cyano-4-(3-methoxy-4,5-methylenedioxyphenyl)-4H-indolo[4,5-b]pyran]",25 nM,7.8,6.5,49 nM,–
"COc1cc(Br)c(C2C3=CC=C4N=CC=C4C3OC(N)=C2C#N)cc1OC (centres unmarked) [Example 95, 2-Amino-3-cyano-4-(2-bromo-4,5-dimethoxyphenyl)-4H-indolo[4,5-b]pyran]",364 nM,5.1,3.8,720 nM,–
"COc1cc(Br)c(C2C3=CC=C4N=C(C)C=C4C3OC(N)=C2C#N)cc1OC (centres unmarked) [Example 96, 2-Amino-3-cyano-4-(2-bromo-4,5-dimethoxyphenyl)-8-methyl-4H-indolo[4,5-b]pyran]",–,Inactive,Inactive,–,Caspase potency EC50 (nM) (T-47D cells [4]; 0.016 to 1 μM final): Inactive; Caspase potency EC50 (nM) (ZR-75-1 cells [1]; 0.016 to 1 μM final): Inactive
"COc1cc(C2C3=CC=C4N=CC=C4C3OC(N)=C2C#N)cc(Br)c1OC (centres unmarked) [Example 97, 2-Amino-3-cyano-4-(3-bromo-4,5-dimethoxyphenyl)-4H-indolo[4,5-b]pyran]",7 nM,5.0,2.7,6 nM,–
"COc1cc(C2C3=CC=C4N=CC=C4C3OC(N)=C2C#N)cc(OC)c1OC (centres unmarked) [Example 99, 2-Amino-3-cyano-4-(3,4,5-trimethoxyphenyl)-4H-indolo[4,5-b]pyran]",23 nM,4.3,2.8,36 nM,–
"COc1cc(C2C(C#N)=C(N)Oc3c2ccc2ccccc32)cc(Br)c1OC (centres unmarked) [Example 103, 2-Amino-3-cyano-4-(3-bromo-4,5-dimethoxyphenyl)-4H-naphtho[1,2-b]pyran]",12 nM,4.2,2.2,17 nM,–
